No end group written: not given here. *: point of attachment. Biotin = O=C1N[C@H]2[C@H](CS[C@H]2CCCCC(=O)*)N1

The subject of the assay is human recombinant GST-CaN. Kind of assay: Peptide/CaN interaction assay (biotinylated peptides on streptavidin beads, GST-CaN pull-down, Western blot). The format is binding. Conditions: for percent of CaN recovered (signal for each/signal for CaN standard * 40%) / CaN binding (in words) / CaN binding lower than the PVIVIT peptide: Fig. 1H; for percent of CaN recovered (signal for each/signal for CaN standard * 40%): 10 μg N-terminally biotinylated peptide on streptavidin beads, 200 ng GST-CaN, 30 min, 4 °C, Western blot, mean (n=7; APP-17mer n=3); for Western blot data following CaN interaction with biotinylated peptides, (signal for each/signal for CaN standard) * 40%: biotinylated APP peptides, GST-CaN pull-down; for CaN binding relative to the APP (WT) peptide (in words): Fig. 4B, FAD mutant peptides. An excerpt: Recombinant rabbit monoclonal to APP (clone Y188; Abcam cat# ab32136; 1:5000 dilution), rabbit polyclonal to APLP1 (Proteintech cat # 12305-2-AP; 1:1000 dilution), and rabbit polyclonal to APLP2 (Proteintech cat # 15041-1-A; 1:500 dilution) were used to detect native APP family members on western blots or recombinant GFP-tagged APP family members as validation (see Fig. S1). A horseradish peroxidase (HRP)-conjugated goat anti-rabbit antibody (Sigma-Aldrich Cat# 12-348; 1:10,000 dilution) was used as secondary antibody for these western blots, while an HRP-conjugated mouse monoclonal antibody to GFP (Invitrogen cat # MA 515256HRP; 1:1000 dilution) was used to independently verify the expression of GFP or GFP-tagged APP family members. A mouse monoclonal antibody CaN (BD Biosciences Cat# 556350; 1:1000 dilution) was used for the detection of native and recombinant CaN on western blots and for co-immunoprecipitation and peptide-based interaction assays experiments, while nonspecific mouse IgG (Thermo Fisher Scientific Cat# 02-6502) was used as a control. An HRP-conjugated goat anti-mouse antibody (Sigma-Aldrich Cat# 12-349; 1:10,000 dilution) […] was used as secondary antibody for these western blots, while HRP-conjugated protein G (Sigma-Aldrich cat # 18-161; 1:5000 dilution) was used for the secondary detection of CaN in co-immunoprecipitation experiments. A mouse monoclonal anti-Flag antibody (Sigma-Aldrich Cat# F1804) was used for co-immunoprecipitations of recombinant APP family members, while an HRP-conjugated version of this antibody (Sigma-Aldrich Cat# A8592; 1:1000) was used for the detection on western blots.
The N-terminally biotinylated AKAP79(330-357) and Ht31peptides were synthesized by Biomolecules Midwest and used as positive and negative controls for CaN interaction as previously described ([20]).
Either PBS with fresh 0.1% Tween-20 and 0.1% bovine serum albumin added or a modified IP buffer (150 mM NaCl, 10 mM Hepes; 5 mM EDTA; pH 7.4) with fresh 0.5% CHAPSO and 0.1% bovine serum albumin was used for these assays. […] Streptavidin-coated dynabeads (20 μl; Invitrogen cat # 65601) were washed and then incubated with 10 μg biotinylated peptides for 15 min at 4 °C in 200 μl of buffer. Beads were washed rapidly (400 μl; 3×) to remove unbound peptide and then incubated with 200 ng human recombinant GST-CaN in 200 μl buffer for 30 min at 4 °C. Following three washes (400 μl; 5 min each), complexes were eluted in 40 μl 2× Laemmli buffer, and samples were separated by SDS-PAGE and analyzed by Western blotting as above. Blots were probed with the mouse monoclonal anti-CaN antibody followed by anti-mouse HRP for secondary detection and visualized by enhanced chemiluminescence and digitally acquired as above. For each blot, the intensity of each band was normalized to that of from the GST-CaN standard (80 ng). As this standard represented 40% of the 200 ng input, the ratio was multiplied by 40 to achieve the percent of CaN recovered.

With “AKAP79: N-terminally biotinylated peptide derived from the AKAP79 CaN-binding domain, positive control (Biotin-EESKRMEPIAIIITDTEISEFDVTKSKN) [reference compound]”, the “percent of CaN recovered (signal for each/signal for CaN standard * 40%)” value is 21.96%.
Consider GVVIATVIVITLVMLKK [APP-17mer], for which the “CaN binding (in words)” value is “minimal affinity for CaN” and the “percent of CaN recovered (signal for each/signal for CaN standard * 40%)” value stood at 2.14%.
Regarding “MAGPHIVIVITGPHEE [T639I, biotinylated APP peptide incorporating the FAD mutation T639I]”, the “Western blot data following CaN interaction with biotinylated peptides, (signal for each/signal for CaN standard) * 40%” value runs as follows: (mean of n = 6) 54.45%; (replicate 1) 94.68%; (replicate 2) 40.64%; (replicate 3) 44.78%; (replicate 4) 37.21%; (replicate 5) 55.66%. For the same substance, the “Western blot data following CaN interaction with biotinylated peptides, (signal for each/signal for CaN standard) * 40%” value (replicate 6) is on record as 53.70%.
For the substance MAGPHSLIVLSGPHEE [APLP1], the “CaN binding lower than the PVIVIT peptide” value was approximately 80% and the “percent of CaN recovered (signal for each/signal for CaN standard * 40%)” value worked out at 13.18%.
On to “MAGPHTMIVITGPHEE [V640M, biotinylated APP peptide incorporating the FAD mutation V640M]”, for which the “Western blot data following CaN interaction with biotinylated peptides, (signal for each/signal for CaN standard) * 40%” value runs as follows: (mean of n = 6) 42.81%; (replicate 1) 69.77%; (replicate 2) 35.90%; (replicate 3) 61.53%; (replicate 4) 25.01%; (replicate 5) 31.86%. For the same substance, the “Western blot data following CaN interaction with biotinylated peptides, (signal for each/signal for CaN standard) * 40%” value (replicate 6) turned out to be 32.78%.
“MAGPHTVFVITGPHEE [I641F, biotinylated APP peptide incorporating the FAD mutation I641F]”: the “CaN binding relative to the APP (WT) peptide (in words)” value is on record as “reduced substantially”. Besides, the “Western blot data following CaN interaction with biotinylated peptides, (signal for each/signal for CaN standard) * 40%” value (mean of n = 6) was found to be 22.96%. Besides, where the note is “replicate 1”, the “Western blot data following CaN interaction with biotinylated peptides, (signal for each/signal for CaN standard) * 40%” value is 23.46%. Also, the “Western blot data following CaN interaction with biotinylated peptides, (signal for each/signal for CaN standard) * 40%” value (replicate 2) was 18.34%. The “Western blot data following CaN interaction with biotinylated peptides, (signal for each/signal for CaN standard) * 40%” value (replicate 3) is on record as 34.56%. Also, under “replicate 4”, the “Western blot data following CaN interaction with biotinylated peptides, (signal for each/signal for CaN standard) * 40%” value is recorded as 13.72%. The “Western blot data following CaN interaction with biotinylated peptides, (signal for each/signal for CaN standard) * 40%” value (replicate 5) was found to be 12.91%. Also, under “replicate 6”, the “Western blot data following CaN interaction with biotinylated peptides, (signal for each/signal for CaN standard) * 40%” value came to 34.77%.
As for “MAGPHTVIFITGPHEE [V642F, biotinylated APP peptide incorporating the FAD mutation V642F]”, the “Western blot data following CaN interaction with biotinylated peptides, (signal for each/signal for CaN standard) * 40%” value is 43.86% (mean of n = 6); 84.45% (replicate 1); 46.13% (replicate 2); 42.80% (replicate 3); 26.46% (replicate 4); 29.11% (replicate 5). For the same substance, the “Western blot data following CaN interaction with biotinylated peptides, (signal for each/signal for CaN standard) * 40%” value (replicate 6) is reported as 34.24%.
For the substance “MAGPHTVIIITGPHEE [V642I, biotinylated APP peptide incorporating the FAD mutation V642I]”, the “Western blot data following CaN interaction with biotinylated peptides, (signal for each/signal for CaN standard) * 40%” value (mean of n = 6) worked out at 44.18%; the “Western blot data following CaN interaction with biotinylated peptides, (signal for each/signal for CaN standard) * 40%” value (replicate 1) was 54.96%; the “Western blot data following CaN interaction with biotinylated peptides, (signal for each/signal for CaN standard) * 40%” value (replicate 2) came out at 45.24%; the “Western blot data following CaN interaction with biotinylated peptides, (signal for each/signal for CaN standard) * 40%” value (replicate 3) is reported as 82.71%; the “Western blot data following CaN interaction with biotinylated peptides, (signal for each/signal for CaN standard) * 40%” value (replicate 4) was 28.44%; the “Western blot data following CaN interaction with biotinylated peptides, (signal for each/signal for CaN standard) * 40%” value (replicate 5) was determined as 26.76%. Further, under “replicate 6”, the “Western blot data following CaN interaction with biotinylated peptides, (signal for each/signal for CaN standard) * 40%” value is 26.97%.
On to “MAGPHTVIVIPGPHEE [T644P, biotinylated APP peptide incorporating the FAD mutation T644P]”, for which the “CaN binding relative to the APP (WT) peptide (in words)” value was “reliably reduced CaN binding”. For the setting “mean of n = 6”, the “Western blot data following CaN interaction with biotinylated peptides, (signal for each/signal for CaN standard) * 40%” value came out at 4.71%. Further, the “Western blot data following CaN interaction with biotinylated peptides, (signal for each/signal for CaN standard) * 40%” value (replicate 1) came out at 0.13%. The “Western blot data following CaN interaction with biotinylated peptides, (signal for each/signal for CaN standard) * 40%” value (replicate 2) is 8.45%. For the same substance, the “Western blot data following CaN interaction with biotinylated peptides, (signal for each/signal for CaN standard) * 40%” value (replicate 3) came to 2.14%. Besides, where the note is “replicate 4”, the “Western blot data following CaN interaction with biotinylated peptides, (signal for each/signal for CaN standard) * 40%” value stood at 4.28%. Further, the “Western blot data following CaN interaction with biotinylated peptides, (signal for each/signal for CaN standard) * 40%” value (replicate 5) is 3.74%. Besides, the “Western blot data following CaN interaction with biotinylated peptides, (signal for each/signal for CaN standard) * 40%” value (replicate 6) is on record as 9.51%.
Consider MAGPHTVIVISGPHEE [APLP2], for which the “CaN binding lower than the PVIVIT peptide” value is recorded as approximately 30% and the “percent of CaN recovered (signal for each/signal for CaN standard * 40%)” value is given as 42.75%.
For MAGPHTVIVITGPHEE [APP], the “CaN binding (in words)” value is “nearly the same extent as the PVIVIT peptide” and the “percent of CaN recovered (signal for each/signal for CaN standard * 40%)” value worked out at 52.92%.

The values are drawn from publication PMC11910330, “Familial Alzheimer’s disease mutations in amyloid precursor protein impair calcineurin signaling to NMDA receptors” (The Journal of Biological Chemistry, 2024).
